Targets include Cytochrome P450 3A4 (Homo sapiens, UniProt P08684); Cytochrome P450 2C9 (Homo sapiens, UniProt P11712); Cytochrome P450 2D6 (Homo sapiens, UniProt P10635).
For a further data set, the target named is T1, Cytochrome P450 1A2 (Homo sapiens, UniProt P05177).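 Further: PubChem cytochrome P450 panel assay, CYP1A2 panel member.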
T1 sequence (P05177 whole entry): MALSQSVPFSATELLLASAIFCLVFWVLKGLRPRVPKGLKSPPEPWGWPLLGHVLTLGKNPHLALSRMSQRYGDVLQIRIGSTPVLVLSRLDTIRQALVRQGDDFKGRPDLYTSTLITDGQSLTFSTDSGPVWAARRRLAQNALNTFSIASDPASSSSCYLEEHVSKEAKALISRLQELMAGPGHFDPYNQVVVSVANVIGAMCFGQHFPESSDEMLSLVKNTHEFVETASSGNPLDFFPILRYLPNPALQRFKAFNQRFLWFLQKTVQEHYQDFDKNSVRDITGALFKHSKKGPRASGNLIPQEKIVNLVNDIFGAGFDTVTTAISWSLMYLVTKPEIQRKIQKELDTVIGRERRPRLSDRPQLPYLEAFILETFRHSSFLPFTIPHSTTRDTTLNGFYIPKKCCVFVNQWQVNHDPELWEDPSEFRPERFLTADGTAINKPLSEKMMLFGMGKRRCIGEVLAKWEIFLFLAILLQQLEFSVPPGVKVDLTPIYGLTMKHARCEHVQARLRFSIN

The target in the next data set is Cytochrome P450 2C19 (Homo sapiens, UniProt P33261). The data set is described as follows: Cytochrome panel assay with activity outcomes. Panel member name: p450-cyp2c19 Compounds with AC50 equal or less than 10 uM are considered active. Type of data set: functional.
The target of data set [1] is T2, RNA-binding protein pos-1 (Caenorhabditis elegans, UniProt G5EF15).
T2 sequence (G5EF15 whole entry): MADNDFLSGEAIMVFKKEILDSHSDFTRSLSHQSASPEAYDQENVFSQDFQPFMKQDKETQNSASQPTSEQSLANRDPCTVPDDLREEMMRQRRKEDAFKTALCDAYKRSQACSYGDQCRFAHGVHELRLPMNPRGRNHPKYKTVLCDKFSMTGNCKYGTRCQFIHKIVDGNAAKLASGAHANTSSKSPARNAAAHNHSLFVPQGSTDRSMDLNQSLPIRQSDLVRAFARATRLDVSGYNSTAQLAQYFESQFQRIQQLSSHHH
Nature of the data set: disruptors of C. elegans POS-1 RNA interaction – biochemical, fluorescence polarization, dose response (AID 1964).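 Further: purified POS-1 fused to maltose binding protein made in E. coli; potency of compounds blocking POS-1 binding to fluorescent RNA.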

Data set [2] addresses T3, Zinc finger protein mex-5 (Caenorhabditis elegans, UniProt Q9XUB2).
T3 sequence (Q9XUB2 whole entry): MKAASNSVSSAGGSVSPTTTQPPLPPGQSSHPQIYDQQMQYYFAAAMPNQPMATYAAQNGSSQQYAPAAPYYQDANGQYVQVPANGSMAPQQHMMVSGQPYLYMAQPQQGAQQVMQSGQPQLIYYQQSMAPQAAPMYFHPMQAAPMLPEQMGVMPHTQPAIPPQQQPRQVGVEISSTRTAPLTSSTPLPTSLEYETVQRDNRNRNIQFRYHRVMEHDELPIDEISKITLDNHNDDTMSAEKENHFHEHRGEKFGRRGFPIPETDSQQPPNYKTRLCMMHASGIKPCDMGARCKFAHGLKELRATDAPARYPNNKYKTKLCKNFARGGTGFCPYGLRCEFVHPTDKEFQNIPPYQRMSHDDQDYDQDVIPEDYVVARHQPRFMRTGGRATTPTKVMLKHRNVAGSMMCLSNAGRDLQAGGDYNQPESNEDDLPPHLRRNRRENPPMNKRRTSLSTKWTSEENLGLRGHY
The data set is described as follows: potency of MEX-5 RNA-binding blockers – biochemical, C. elegans, fluorescence polarization, dose response (AID 1960). A general note: Polarisation of emitted light reports the rotation of a fluorescent probe.

Each structure is given as a SMILES string. Calls of active or inactive are those of the source.

Sequence of Cytochrome P450 2C9 (P11712 whole entry): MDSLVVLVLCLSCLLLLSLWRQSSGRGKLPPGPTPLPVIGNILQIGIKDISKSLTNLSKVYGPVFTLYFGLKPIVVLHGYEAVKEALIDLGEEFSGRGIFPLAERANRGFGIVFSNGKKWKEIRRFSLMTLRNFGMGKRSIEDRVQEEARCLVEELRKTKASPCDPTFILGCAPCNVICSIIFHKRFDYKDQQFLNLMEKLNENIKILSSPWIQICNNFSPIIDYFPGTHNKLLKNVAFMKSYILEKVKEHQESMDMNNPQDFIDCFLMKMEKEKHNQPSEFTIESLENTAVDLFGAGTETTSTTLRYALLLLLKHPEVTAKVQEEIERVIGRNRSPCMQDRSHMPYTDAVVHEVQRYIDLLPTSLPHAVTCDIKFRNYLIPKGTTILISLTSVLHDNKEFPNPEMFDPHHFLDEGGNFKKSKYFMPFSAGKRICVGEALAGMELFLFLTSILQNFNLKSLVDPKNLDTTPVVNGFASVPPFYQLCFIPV
Sequence of Cytochrome P450 2D6 (P10635 whole entry): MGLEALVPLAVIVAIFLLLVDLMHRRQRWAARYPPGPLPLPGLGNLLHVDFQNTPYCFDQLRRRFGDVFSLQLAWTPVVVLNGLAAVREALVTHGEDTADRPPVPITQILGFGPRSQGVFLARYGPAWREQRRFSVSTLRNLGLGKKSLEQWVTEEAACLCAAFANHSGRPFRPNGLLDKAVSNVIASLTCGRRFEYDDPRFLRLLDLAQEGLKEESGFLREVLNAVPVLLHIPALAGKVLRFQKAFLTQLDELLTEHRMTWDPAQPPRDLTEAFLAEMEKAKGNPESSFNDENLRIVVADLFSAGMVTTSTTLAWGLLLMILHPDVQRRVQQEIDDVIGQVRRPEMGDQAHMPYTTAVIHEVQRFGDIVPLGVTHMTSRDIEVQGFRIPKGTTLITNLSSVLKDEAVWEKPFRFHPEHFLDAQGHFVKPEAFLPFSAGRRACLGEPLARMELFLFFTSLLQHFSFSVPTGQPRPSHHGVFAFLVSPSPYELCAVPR
Sequence of Cytochrome P450 3A4 (P08684 whole entry): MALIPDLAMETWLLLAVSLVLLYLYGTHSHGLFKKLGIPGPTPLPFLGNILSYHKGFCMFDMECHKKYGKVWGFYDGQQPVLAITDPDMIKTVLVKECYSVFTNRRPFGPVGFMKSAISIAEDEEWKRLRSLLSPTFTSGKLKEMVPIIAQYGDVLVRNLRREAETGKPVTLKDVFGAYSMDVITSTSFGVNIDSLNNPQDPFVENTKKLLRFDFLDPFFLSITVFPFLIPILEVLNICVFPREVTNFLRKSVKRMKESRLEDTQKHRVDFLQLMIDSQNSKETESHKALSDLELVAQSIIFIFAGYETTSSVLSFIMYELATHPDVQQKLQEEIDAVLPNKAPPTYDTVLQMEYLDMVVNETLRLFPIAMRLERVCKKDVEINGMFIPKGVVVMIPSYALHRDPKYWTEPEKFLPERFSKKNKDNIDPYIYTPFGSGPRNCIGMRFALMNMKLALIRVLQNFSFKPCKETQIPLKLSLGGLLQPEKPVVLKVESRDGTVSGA
Sequence of Cytochrome P450 2C19 (P33261 whole entry): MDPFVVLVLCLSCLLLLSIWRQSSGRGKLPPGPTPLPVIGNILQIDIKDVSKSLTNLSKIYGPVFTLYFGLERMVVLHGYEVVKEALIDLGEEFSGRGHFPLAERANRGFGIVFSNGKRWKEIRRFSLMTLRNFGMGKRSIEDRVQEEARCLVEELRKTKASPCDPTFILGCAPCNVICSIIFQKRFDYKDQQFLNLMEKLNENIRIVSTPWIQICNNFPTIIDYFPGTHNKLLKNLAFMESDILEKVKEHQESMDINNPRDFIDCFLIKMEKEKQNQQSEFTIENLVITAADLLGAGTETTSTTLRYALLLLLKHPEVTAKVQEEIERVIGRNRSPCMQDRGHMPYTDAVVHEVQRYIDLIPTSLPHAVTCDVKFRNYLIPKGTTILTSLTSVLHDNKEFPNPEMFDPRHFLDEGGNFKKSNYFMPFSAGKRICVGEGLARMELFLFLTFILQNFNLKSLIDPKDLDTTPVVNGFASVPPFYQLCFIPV

Broadly, the AC50 is the midpoint of the concentration-response curve, whichever way the signal moves. In the case of `Cc1c(Nc2ncccc2C(=O)O)cccc1C(F)(F)F`, the half-maximal activity concentration (AC50) on Cytochrome P450 1A2 was 12.6 µM (inconclusive). Take `CN(CCC(=O)O)C1=Nc2ccc(Cl)cc2C(c2ccccc2)=[N+]([O-])C1`: the AC50 at Cytochrome P450 1A2 is 0.0631 µM (inconclusive). For the compound `COc1ccc(OC)c2nc(O)c(CCNS(=O)(=O)c3ccccc3)cc12`, the AC50 on Cytochrome P450 2C19 (read-out: AC50) was 3.16 µM (inconclusive); at Cytochrome P450 3A4, 14.1 µM (inconclusive); on Cytochrome P450 2C9 it was 14.1 µM (inconclusive). For the compound `O=C(c1cnccn1)N1CCC[C@@]2(CCN(c3ccccn3)C2)C1`, the AC50 at Cytochrome P450 1A2 is 20 µM (inconclusive). Take `CCCCNCCOCCSc1ccc(Cl)cc1`: the figures for the AC50 on Cytochrome P450 2C19 (read-out: AC50) and at Cytochrome P450 3A4 were 17.8 µM (inconclusive) and 14.1 µM (inconclusive), respectively. The term EC50 denotes the concentration giving half of the maximal effect. `N#Cc1c(N)n(-c2ccc(C(=O)O)cc2)c2nc3ccccc3nc12`: the EC50 in data set [1] and in data set [2] was > 300 µM (not active) throughout. On to `CCOC(=O)C1=C(CN2c3ccccc3CC2C)NC(=O)NC1c1ccccc1` (configuration not stated), for which the AC50 at Cytochrome P450 1A2 was 22.4 µM (inconclusive); at Cytochrome P450 2C9 it was 25.1 µM (inconclusive).

On to `COC(=O)c1cc(C(=O)OC)cc(-n2c(C)cc(C=O)c2C)c1`, for which the EC50 in data set [1] was 78.7 µM (active); in data set [2], > 300 µM (not active). `NC[C@H](CP(=O)(O)O)c1ccc(Cl)cc1`: on Cytochrome P450 1A2, the AC50 is 39.8 µM (inconclusive).

As to `Cc1cnc(CNc2ncncc2-c2ccc(C(=O)N(C)C)cc2)cn1`, the half-maximal activity concentration (AC50) at Cytochrome P450 1A2 is 20 µM (inconclusive). As for `N#C/C(=C\N1CCNC1=S)C(=O)c1ccc2ccccc2c1`, the AC50 on Cytochrome P450 1A2 is 1.58 µM (inconclusive); on Cytochrome P450 2C9, 3.16 µM (inconclusive).

As to `O=C(NCCOc1ccccc1)C1Nc2ccc(OC(F)(F)F)cc2C2C=CCC12` (configuration not stated), the EC50 in data set [1] and in data set [2] was > 300 µM (not active) throughout. Regarding `O=C(CSc1nnc(-c2cccs2)n1-c1ccccc1)N1CCCC1`, the AC50 at Cytochrome P450 2C19 (read-out: AC50) is 28.2 µM (inconclusive); at Cytochrome P450 2D6, 7.94 µM (inconclusive); at Cytochrome P450 3A4 it was 28.2 µM (inconclusive); at Cytochrome P450 2C9, 12.6 µM (inconclusive). Take `CC(CP(=O)(O)O)NC(=O)Cc1ccccc1` (configuration not stated): at Cytochrome P450 2C19, the AC50 result is reported as “inconclusive”. For `CCC/C=C(\CCC)C(NC(=O)c1ccc(-c2ccccc2)cc1)c1ccc(C(=O)OC)cc1` (configuration not stated), the AC50 at Cytochrome P450 1A2 was 0.631 µM (inconclusive); on Cytochrome P450 3A4, 6.31 µM (inconclusive).

As for `COc1ccccc1-c1ccc2ncnc(N3CCN(C)CC3)c2c1`, the AC50 at Cytochrome P450 2C19 (read-out: AC50) was 15.8 µM (inconclusive); at Cytochrome P450 2D6, 39.8 µM (inconclusive). Take `COc1cccc(Cn2c(=O)c(-c3ccccc3)nc3cnc(OC)nc32)c1`: the values for the concentration at half-maximal activity (AC50) on Cytochrome P450 2C19 (read-out: AC50), at Cytochrome P450 2D6 and at Cytochrome P450 1A2 were 39.8 µM (inconclusive), 39.8 µM (inconclusive) and 15.8 µM (inconclusive), respectively. On to `CCC(=O)Nc1ccc(C(=O)NNC(=O)c2cccs2)cc1`, for which the AC50 on Cytochrome P450 2C19 (read-out: AC50) was 0.891 µM (inconclusive). As to `CCC/C=C(\CCC)C(NC(=O)c1ccc(C(=O)OC)cc1)c1ccc(C(=O)OC)cc1` (configuration not stated), the AC50 is 10 µM (inconclusive) on Cytochrome P450 2C19 (read-out: AC50) and 25.1 µM (inconclusive) at Cytochrome P450 2D6. For `COc1cc(C(=O)Nc2ccc(-c3nnc(-c4ccco4)o3)cc2)cc(OC)c1OC`, the AC50 at Cytochrome P450 2C19 (read-out: AC50) is 6.31 µM (inconclusive); on Cytochrome P450 2C9 it was 7.94 µM (inconclusive).

Regarding `CCCc1c(O)nc(SCC(=O)N2CCCCC2)nc1O`, the EC50 in data set [1] and in data set [2] was > 300 µM (not active) in each case.

Take `CCCS(=O)(=O)N1CCCC(C(=O)NCC2CCCO2)C1` (configuration not stated): the AC50 is 39.8 µM (inconclusive) at Cytochrome P450 2C19 (read-out: AC50) and 8.91 µM (inconclusive) at Cytochrome P450 2C9. Consider `COc1ccc(-c2ccc(/C=C3\C(=O)N(c4ccccc4)N=C3c3ccccc3)o2)c([N+](=O)[O-])c1`, for which the AC50 at Cytochrome P450 1A2 was 5.01 µM (inconclusive). For `CCOC(=O)c1cc(=O)n2nc(-c3ccc(C)cc3)nc2s1`, the EC50 in data set [1] and in data set [2] was > 300 µM (not active) each time. On to `Cc1nn2c(N3CCOCC3)c3c(nc2c1-c1ccccc1)CCCC3`, for which the EC50 in data set [1] and in data set [2] was > 300 µM (not active) each time.

Consider `O=C(NNC(=O)c1csc(-c2cccnc2)n1)c1ccccc1`, for which the EC50 was > 300 µM (not active) in data set [1] and > 300 µM (inconclusive) in data set [2]. Regarding `CCOC(=O)c1ccc(-n2c(C)ccc2C)cc1`, the EC50 in data set [1] and in data set [2] was > 300 µM (not active) throughout. As for `CCOC(=O)N1CCC(NC(=O)C(Cc2ccccc2)NC(=O)C2CCCCC2)CC1` (configuration not stated), the half-maximal effective concentration (EC50) in data set [1] and in data set [2] was > 300 µM (not active) in each case. On to `S=C(NCc1ccncc1)Nc1ccc(Cl)cc1Cl`, for which the 50% effective concentration (EC50) in data set [1] and in data set [2] was > 300 µM (not active) in each case.

Regarding `N#Cc1cccc(NC(=O)N2CCCC3(CCN(C(=O)c4cc(C(F)(F)F)cc(C(F)(F)F)c4)CC3)C2)c1`, the AC50 on Cytochrome P450 1A2 was 6.31 µM (inconclusive). Consider `COc1ccc(C(=O)N2CCC3(CCN(Cc4ccc(C#N)cc4)CC3)CC2)cc1`, for which the half-maximal activity concentration (AC50) at Cytochrome P450 1A2 is 12.6 µM (inconclusive); at Cytochrome P450 2C9, 31.6 µM (inconclusive). As for `COC(=O)c1ccc(-n2c(C)cc(C(=O)COC(=O)CNS(=O)(=O)c3ccc(C)cc3)c2C)cc1`, the EC50 in data set [1] and in data set [2] was > 300 µM (not active) in each case. Turning to `CCNc1ncc2nc(CCc3ccccc3)c(=O)n(-c3ccccc3)c2n1`, the concentration at half-maximal activity (AC50) at Cytochrome P450 2C19 (read-out: AC50) is 31.6 µM (inconclusive).

Turning to `CCCC[C@@H]1C[C@H]1C(NC(=O)c1cccs1)c1ccc(-c2ccccc2)cc1` (some centres not stated), the AC50 at Cytochrome P450 2C19 (read-out: AC50) was 3.16 µM (inconclusive); on Cytochrome P450 1A2, 2 µM (inconclusive); at Cytochrome P450 3A4 it was 6.31 µM (inconclusive). For `CCN(CC)C(=O)CSc1nnc(C2CCCCC2)o1`, at Cytochrome P450 2C19 (read-out: AC50), the AC50 was 11.2 µM (inconclusive).

For `O=c1/c(=C\c2ccc(O)cc2)sc2nc(-c3ccccc3)c(-c3ccccc3)n12`, the EC50 in data set [1] is > 300 µM (not active); in data set [2], > 300 µM (inconclusive). With `O=C(O)/C=C\C(=O)NCc1ccccc1`, the values for the concentration at half-maximal activity (AC50) on Cytochrome P450 2C19 (read-out: AC50) and at Cytochrome P450 2D6 were 0.0158 µM (inconclusive) and 0.794 µM (inconclusive), respectively. For the compound `COc1cc(OC)c(/C=C2/C(=O)Nc3ccccc32)c(OC)c1`, on Cytochrome P450 2C19 (read-out: AC50), the AC50 was 31.6 µM (inconclusive).

As for `OCCN1CCN(CCC=C2c3ccccc3Sc3ccc(Cl)cc32)CC1` [ZUCLOPENTHIXOL], the results for the AC50 at Cytochrome P450 2C19 (read-out: AC50), at Cytochrome P450 2D6 and at Cytochrome P450 3A4 were 2.51 µM (inconclusive), 10 µM (inconclusive) and 12.6 µM (inconclusive), respectively.
